Literature values in patent publication US20070232669A1, “N-phenylbenzotriazolyl c-kit inhibitors” (priority 2006, published 2007).
Counter-ions that a name gives are not always drawn.

Key:
[1] = test system: MO7e human leukemia cells
[2] = test system: MO7e human leukemia cells; remark: listed apart in the source

SMILES: Cc1ccc(NC(=O)c2ccc(CN3CCN(C)CC3)cc2)cc1Nc1nccc(-c2cccnc2)n1 [Gleevec, imatinib mesylate]
- Kit ligand-stimulated growth of MO7e human leukemia cells [1]: inhibited
- GM-CSF stimulated growth of MO7e human leukemia cells [2]: not affected
